Reference: ChEMBL document CHEMBL5154691, “Discovery of novel verinurad analogs as dual inhibitors of URAT1 and GLUT9 with improved Druggability for the treatment of hyperuricemia” (Eur J Med Chem, 2022)
pIC50: −log10 of the molar value.

The molecules below were run against T1, Broad substrate specificity ATP-binding cassette transporter ABCG2 (Homo sapiens, UniProt Q9UNQ0) (assay: Inhibition of ABCG2 (unknown origin) expressed in HEK293 cells membrane vesicles assessed as inhibition of ATP-induced 14C-uric acid uptake preincubated for 15 mins followed by incubation with ATP and substrate for 5 mins by liquid scintillation counting analysis).
T1 sequence (Q9UNQ0 whole entry): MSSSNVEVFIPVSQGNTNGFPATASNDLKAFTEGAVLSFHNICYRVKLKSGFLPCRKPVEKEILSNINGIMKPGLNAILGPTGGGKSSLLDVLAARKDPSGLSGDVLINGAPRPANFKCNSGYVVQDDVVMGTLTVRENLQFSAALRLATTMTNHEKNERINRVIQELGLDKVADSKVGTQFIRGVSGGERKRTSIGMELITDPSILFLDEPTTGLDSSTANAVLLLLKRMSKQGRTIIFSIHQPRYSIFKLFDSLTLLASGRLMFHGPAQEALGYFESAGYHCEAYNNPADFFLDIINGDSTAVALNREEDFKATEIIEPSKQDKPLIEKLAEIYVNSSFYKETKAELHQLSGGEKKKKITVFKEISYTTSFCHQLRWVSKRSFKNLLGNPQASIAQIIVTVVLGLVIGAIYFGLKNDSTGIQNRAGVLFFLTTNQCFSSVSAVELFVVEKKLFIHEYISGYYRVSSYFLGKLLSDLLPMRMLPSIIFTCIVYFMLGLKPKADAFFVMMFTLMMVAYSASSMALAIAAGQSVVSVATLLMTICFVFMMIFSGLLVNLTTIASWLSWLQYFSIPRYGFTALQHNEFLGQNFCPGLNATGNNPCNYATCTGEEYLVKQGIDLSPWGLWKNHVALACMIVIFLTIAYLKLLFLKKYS
Format: toxicity, cell membranes, Membrane vesicle

Compound	pIC50
COc1cc(C(=O)O)ccc1CSc1ccncc1N(C)c1ccc(C#N)c2ccccc12	4.46
N#Cc1ccc(Oc2cnccc2SCCCC(=O)O)c2ccccc12	4.55

The molecules below were run against T2, Solute carrier family 22 member 12 (Homo sapiens, UniProt Q96S37) (assay: Inhibition of URAT1 (unknown origin)-mediated 14C-uric acid uptake expressed in HEK293 cells using 14C-uric acid as substrate preincubated for 30 mins followed by substrate addition and measured after 15 mins by liquid scintillation counting analysis).
T2 sequence (Q96S37 whole entry): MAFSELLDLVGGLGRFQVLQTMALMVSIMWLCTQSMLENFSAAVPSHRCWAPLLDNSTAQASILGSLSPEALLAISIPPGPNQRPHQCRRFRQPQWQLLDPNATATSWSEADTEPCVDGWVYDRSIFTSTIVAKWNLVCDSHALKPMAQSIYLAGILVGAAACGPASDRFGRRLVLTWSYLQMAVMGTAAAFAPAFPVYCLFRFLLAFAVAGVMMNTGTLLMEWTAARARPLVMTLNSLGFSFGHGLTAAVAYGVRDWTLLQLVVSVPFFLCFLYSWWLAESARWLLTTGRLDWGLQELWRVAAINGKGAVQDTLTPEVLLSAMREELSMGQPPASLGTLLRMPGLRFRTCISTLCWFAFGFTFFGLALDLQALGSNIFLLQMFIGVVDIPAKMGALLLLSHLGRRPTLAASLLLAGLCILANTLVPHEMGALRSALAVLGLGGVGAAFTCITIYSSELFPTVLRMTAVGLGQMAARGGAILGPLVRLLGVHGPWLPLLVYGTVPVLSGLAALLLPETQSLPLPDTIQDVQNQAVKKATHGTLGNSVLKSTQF
Format: cell-based

pIC50	Compound
5.37	N#Cc1ccc(Nc2cnccc2SCCCCCC(=O)O)c2ccccc12
5.32	N#Cc1ccc(Oc2cnccc2SCCCCCC(=O)O)c2ccccc12
6.34	COc1cc(C(=O)O)ccc1CSc1ccncc1N(C)c1ccc(C#N)c2ccccc12
5.71	N#Cc1ccc(Nc2cnccc2SCc2cccc(C(=O)O)c2)c2ccccc12
5.16	N#Cc1ccc(Oc2cnccc2SCC(=O)O)c2ccccc12
5.46	N#Cc1ccc(Nc2cnccc2Sc2cccc([N+](=O)[O-])c2CC(=O)O)c2ccccc12
5.33	N#Cc1ccc(Nc2cnccc2SCc2ccc(-c3ccccc3C(=O)O)cc2)c2ccccc12
5.37	N#Cc1ccc(Oc2cnccc2SCCCCC(=O)O)c2ccccc12
5.24	N#Cc1ccc(Nc2cnccc2SCCCCCCC(=O)O)c2ccccc12
5.91	N#Cc1ccc(Oc2cnccc2SCCCC(=O)O)c2ccccc12
5.34	CN(c1cnccc1SCc1ccc(-c2ccccc2C(=O)O)cc1)c1ccc(C#N)c2ccccc12
5.56	N#Cc1ccc(Nc2cnccc2SCCCC(=O)O)c2ccccc12
5.78	COc1cc(C(=O)O)ccc1CSc1ccncc1Nc1ccc(C#N)c2ccccc12
4.82	N#Cc1ccc(Oc2cnccc2SCc2ccc(-c3ccccc3C(=O)O)cc2)c2ccccc12
5.09	N#Cc1ccc(Oc2cnccc2Sc2ccc(Br)cc2CC(=O)O)c2ccccc12
4.85	COc1ccc(Sc2ccncc2Oc2ccc(C#N)c3ccccc23)c(CC(=O)O)c1
5.37	COc1ccc(Sc2ccncc2Nc2ccc(C#N)c3ccccc23)c(CC(=O)O)c1
5.59	N#Cc1ccc(Nc2cnccc2SCc2ccc(C(=O)O)cc2)c2ccccc12
5.42	N#Cc1ccc(Oc2cnccc2SCCCCCCC(=O)O)c2ccccc12
4.98	N#Cc1ccc(Oc2cnccc2Sc2cccc([N+](=O)[O-])c2CC(=O)O)c2ccccc12
4.79	COc1cc(C(=O)O)ccc1CSc1ccncc1Oc1ccc(C#N)c2ccccc12
4.99	N#Cc1ccc(Oc2cnccc2SCc2ccc(C(=O)O)cc2)c2ccccc12
5.64	N#Cc1ccc(Nc2cnccc2SCCCCC(=O)O)c2ccccc12
5.16	N#Cc1ccc(Oc2cnccc2SCc2ccccc2C(=O)O)c2ccccc12
5.28	CC(C)(Sc1ccncc1Oc1ccc(C#N)c2ccccc12)C(=O)O
5.18	N#Cc1ccc(Oc2cnccc2SCc2cccc(C(=O)O)c2)c2ccccc12
5.39	N#Cc1ccc(Nc2cnccc2Sc2ccc(Br)cc2CC(=O)O)c2ccccc12

Compound	pIC50
CN(c1cnccc1SCCCC(=O)O)c1ccc(C#N)c2ccccc12	5.59
CN(c1cnccc1SCc1ccccc1C(=O)O)c1ccc(C#N)c2ccccc12	5.35
CN(c1cnccc1SCCCCCCC(=O)O)c1ccc(C#N)c2ccccc12	5.33
CN(c1cnccc1SCc1ccc(C(=O)O)cc1)c1ccc(C#N)c2ccccc12	5.20
CN(c1cnccc1SCCCCCC(=O)O)c1ccc(C#N)c2ccccc12	5.42
CN(c1cnccc1SCCCCC(=O)O)c1ccc(C#N)c2ccccc12	5.45
CN(c1cnccc1SC(C)(C)C(=O)O)c1ccc(C#N)c2ccccc12	5.27
CN(c1cnccc1SCc1cccc(C(=O)O)c1)c1ccc(C#N)c2ccccc12	5.45

What follows are molecules tested against T3, Solute carrier family 22 member 6 (Homo sapiens, UniProt Q4U2R8) (assay: Inhibition of OAT1 (unknown origin) expressed in HEK293 cells assessed as inhibition of 6-CFL uptake preincubated for 30 mins followed by incubation with 6-CFL and measured after 15 mins by fluorescence based analysis).
T3 sequence (Q4U2R8 whole entry): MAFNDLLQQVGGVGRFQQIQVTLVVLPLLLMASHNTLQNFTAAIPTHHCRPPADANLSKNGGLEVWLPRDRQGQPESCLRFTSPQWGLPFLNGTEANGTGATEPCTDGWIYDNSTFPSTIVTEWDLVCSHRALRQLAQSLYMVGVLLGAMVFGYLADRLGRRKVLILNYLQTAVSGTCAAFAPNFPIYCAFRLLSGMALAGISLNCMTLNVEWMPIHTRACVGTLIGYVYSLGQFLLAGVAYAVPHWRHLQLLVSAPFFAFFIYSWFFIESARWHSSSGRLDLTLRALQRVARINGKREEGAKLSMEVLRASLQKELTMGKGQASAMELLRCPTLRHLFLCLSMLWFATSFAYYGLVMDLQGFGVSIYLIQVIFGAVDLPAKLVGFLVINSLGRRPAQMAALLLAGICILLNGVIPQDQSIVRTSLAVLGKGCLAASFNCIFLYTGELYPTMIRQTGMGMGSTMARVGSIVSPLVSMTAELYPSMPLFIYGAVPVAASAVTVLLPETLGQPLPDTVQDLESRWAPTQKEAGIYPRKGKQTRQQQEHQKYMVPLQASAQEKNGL
Format: toxicity, cell-based

Compound	pIC50
COc1cc(C(=O)O)ccc1CSc1ccncc1N(C)c1ccc(C#N)c2ccccc12	4.59
N#Cc1ccc(Oc2cnccc2SCCCC(=O)O)c2ccccc12	4.38

The molecules below were run against T4, Solute carrier family 2, facilitated glucose transporter member 9 (Homo sapiens) (UniProt Q9NRM0) (assay: Inhibition of GLUT9 (unknown origin) expressed in HEK293T cells assessed as inhibition of uric acid-induced current at 10 uM by whole cell patch clamp technique).
T4 sequence (whole entry): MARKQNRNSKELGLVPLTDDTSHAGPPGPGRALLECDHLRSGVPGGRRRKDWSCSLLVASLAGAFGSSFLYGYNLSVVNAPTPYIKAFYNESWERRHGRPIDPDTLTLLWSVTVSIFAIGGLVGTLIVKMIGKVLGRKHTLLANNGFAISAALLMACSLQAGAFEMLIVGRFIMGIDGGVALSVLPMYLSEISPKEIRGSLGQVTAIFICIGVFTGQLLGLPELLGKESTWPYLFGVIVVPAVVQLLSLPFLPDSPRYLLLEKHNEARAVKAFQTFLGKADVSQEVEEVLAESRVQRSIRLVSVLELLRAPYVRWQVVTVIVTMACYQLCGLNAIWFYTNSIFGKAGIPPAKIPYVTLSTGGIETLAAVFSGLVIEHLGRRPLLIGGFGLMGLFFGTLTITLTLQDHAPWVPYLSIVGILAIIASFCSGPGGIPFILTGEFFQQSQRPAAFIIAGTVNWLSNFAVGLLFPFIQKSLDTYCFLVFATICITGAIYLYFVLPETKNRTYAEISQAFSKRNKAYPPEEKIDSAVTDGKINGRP
Format: cell-based

inhibition [%]	Compound
23.1	COc1cc(C(=O)O)ccc1CSc1ccncc1N(C)c1ccc(C#N)c2ccccc12
15.2	N#Cc1ccc(Oc2cnccc2SCCCC(=O)O)c2ccccc12
